# Experimental data reported in the NIST ThermoML archive (doi:10.1021/acs.jced.8b00132).
# Values joined by “and” are separate entries in the source; they are usually repeats but may differ in a detail not shown here. Equal values may be shown once. ± gives the expanded uncertainty stated by the source.
smiles,measurement,setting,value
O=C(C(F)(F)C(F)(F)F)C(F)(C(F)(F)F)C(F)(F)F [dodecafluoro-2-methylpentan-3-one],thermal conductivity,"303.37 K, 4422 kPa, Liquid, transient hot wire",0.05844 ± 0.0012 W/m/K
same,thermal conductivity,"303.37 K, 4436 kPa, Liquid, transient hot wire",0.05841 ± 0.0012 W/m/K
same,thermal conductivity,"303.38 K, 22430 kPa, Liquid, transient hot wire",0.06522 ± 0.0013 W/m/K
same,thermal conductivity,"303.38 K, 22431 kPa, Liquid, transient hot wire",0.06529 ± 0.0014 W/m/K
same,thermal conductivity,"303.46 K, 36 kPa, Gas, transient hot wire",0.01187 ± 0.0047 W/m/K
same,thermal conductivity,"303.46 K, 38 kPa, Gas, transient hot wire",0.01198 ± 0.00076 W/m/K
same,thermal conductivity,"303.46 K, 91 kPa, Liquid, transient hot wire",0.05636 ± 0.0012 W/m/K
same,thermal conductivity,"303.46 K, 92 kPa, Liquid, transient hot wire",0.05637 ± 0.0012 W/m/K
same,thermal conductivity,"311.78 K, 60 kPa, Gas, transient hot wire",0.01276 ± 0.0008 W/m/K
same,thermal conductivity,"311.78 K, 63 kPa, Gas, transient hot wire",0.01265 ± 0.00079 W/m/K
same,thermal conductivity,"311.79 K, 63 kPa, Gas, transient hot wire",0.01255 ± 0.00078 W/m/K
same,thermal conductivity,"311.95 K, 34 kPa, Gas, transient hot wire",0.01258 ± 0.00079 W/m/K
same,thermal conductivity,"312.1 K, 61 kPa, Gas, transient hot wire",0.01276 ± 0.00079 W/m/K
same,thermal conductivity,"312.11 K, 63 kPa, Gas, transient hot wire",0.0127 ± 0.00079 W/m/K
same,thermal conductivity,"312.12 K, 63 kPa, Gas, transient hot wire",0.01261 ± 0.00078 W/m/K
same,thermal conductivity,"312.3 K, 34 kPa, Gas, transient hot wire",0.01253 ± 0.00079 W/m/K
same,thermal conductivity,"312.43 K, 61 kPa, Gas, transient hot wire",0.01283 ± 0.0008 W/m/K
same,thermal conductivity,"312.43 K, 63 kPa, Gas, transient hot wire",0.01278 ± 0.0008 W/m/K
same,thermal conductivity,"312.46 K, 63 kPa, Gas, transient hot wire",0.01291 ± 0.00081 W/m/K
same,thermal conductivity,"312.66 K, 34 kPa, Gas, transient hot wire",0.01257 ± 0.00079 W/m/K
same,thermal conductivity,"312.81 K, 61 kPa, Gas, transient hot wire",0.01287 ± 0.00082 W/m/K
same,thermal conductivity,"312.81 K, 63 kPa, Gas, transient hot wire",0.01297 ± 0.00082 W/m/K
same,thermal conductivity,"312.83 K, 63 kPa, Gas, transient hot wire",0.01281 ± 0.00081 W/m/K
same,thermal conductivity,"313.06 K, 34 kPa, Gas, transient hot wire",0.01264 ± 0.0008 W/m/K
same,thermal conductivity,"313.22 K, 61 kPa, Gas, transient hot wire",0.01297 ± 0.00082 W/m/K
same,thermal conductivity,"313.22 K, 63 kPa, Gas, transient hot wire",0.01291 ± 0.00081 W/m/K
same,thermal conductivity,"313.24 K, 63 kPa, Gas, transient hot wire",0.01285 ± 0.0008 W/m/K
same,thermal conductivity,"313.49 K, 34 kPa, Gas, transient hot wire",0.01265 ± 0.0008 W/m/K
same,thermal conductivity,"315 K, 42 kPa, Gas, hot wire",0.01266 ± 0.00059 W/m/K and 0.01273 ± 0.0006 W/m/K
same,thermal conductivity,"315.01 K, 24 kPa, Gas, hot wire",0.01262 ± 0.00059 W/m/K and 0.01267 ± 0.00059 W/m/K
same,thermal conductivity,"315.03 K, 68 kPa, Gas, hot wire",0.01269 ± 0.0006 W/m/K
same,thermal conductivity,"315.05 K, 69 kPa, Gas, hot wire",0.01239 ± 0.0006 W/m/K
same,thermal conductivity,"315.06 K, 73 kPa, Gas, hot wire",0.01282 ± 0.00061 W/m/K
same,thermal conductivity,"315.08 K, 73 kPa, Gas, hot wire",0.0128 ± 0.0006 W/m/K
same,thermal conductivity,"315.18 K, 42 kPa, Gas, hot wire",0.0127 ± 0.0006 W/m/K
same,thermal conductivity,"315.19 K, 24 kPa, Gas, hot wire",0.01259 ± 0.00059 W/m/K
same,thermal conductivity,"315.23 K, 68 kPa, Gas, hot wire",0.01265 ± 0.00059 W/m/K
same,thermal conductivity,"315.26 K, 68 kPa, Gas, hot wire",0.01263 ± 0.00059 W/m/K
same,thermal conductivity,"315.26 K, 73 kPa, Gas, hot wire",0.01275 ± 0.0006 W/m/K and 0.01272 ± 0.0006 W/m/K
same,thermal conductivity,"315.38 K, 24 kPa, Gas, hot wire",0.01262 ± 0.00059 W/m/K
same,thermal conductivity,"315.39 K, 24 kPa, Gas, hot wire",0.01261 ± 0.00059 W/m/K
same,thermal conductivity,"315.39 K, 42 kPa, Gas, hot wire",0.01258 ± 0.00059 W/m/K and 0.0126 ± 0.00059 W/m/K
same,thermal conductivity,"315.45 K, 73 kPa, Gas, hot wire",0.01275 ± 0.0006 W/m/K and 0.01277 ± 0.0006 W/m/K
same,thermal conductivity,"315.48 K, 67 kPa, Gas, hot wire",0.01259 ± 0.00059 W/m/K
same,thermal conductivity,"315.48 K, 68 kPa, Gas, hot wire",0.01258 ± 0.00059 W/m/K
same,thermal conductivity,"315.6 K, 24 kPa, Gas, hot wire",0.01263 ± 0.00059 W/m/K
same,thermal conductivity,"315.6 K, 42 kPa, Gas, hot wire",0.01262 ± 0.00059 W/m/K
same,thermal conductivity,"315.61 K, 41 kPa, Gas, hot wire",0.01258 ± 0.00059 W/m/K
same,thermal conductivity,"315.65 K, 73 kPa, Gas, hot wire",0.01278 ± 0.0006 W/m/K
same,thermal conductivity,"315.66 K, 73 kPa, Gas, hot wire",0.01275 ± 0.0006 W/m/K
same,thermal conductivity,"315.7 K, 67 kPa, Gas, hot wire",0.01258 ± 0.00059 W/m/K and 0.01255 ± 0.00059 W/m/K
same,thermal conductivity,"315.82 K, 24 kPa, Gas, hot wire",0.01264 ± 0.00059 W/m/K and 0.01263 ± 0.00059 W/m/K
same,thermal conductivity,"315.84 K, 41 kPa, Gas, hot wire",0.01259 ± 0.00059 W/m/K
same,thermal conductivity,"315.85 K, 42 kPa, Gas, hot wire",0.01252 ± 0.00059 W/m/K
same,thermal conductivity,"315.87 K, 73 kPa, Gas, hot wire",0.01277 ± 0.00061 W/m/K and 0.01278 ± 0.00061 W/m/K
same,thermal conductivity,"315.91 K, 67 kPa, Gas, hot wire",0.01259 ± 0.00059 W/m/K
same,thermal conductivity,"315.92 K, 67 kPa, Gas, hot wire",0.01258 ± 0.00059 W/m/K
same,thermal conductivity,"321.61 K, 79 kPa, Gas, transient hot wire",0.01361 ± 0.00085 W/m/K
same,thermal conductivity,"321.66 K, 65 kPa, Gas, transient hot wire",0.01365 ± 0.00085 W/m/K
same,thermal conductivity,"321.69 K, 64 kPa, Gas, transient hot wire",0.01346 ± 0.00084 W/m/K
same,thermal conductivity,"321.92 K, 78 kPa, Gas, transient hot wire",0.01359 ± 0.00084 W/m/K
same,thermal conductivity,"321.97 K, 66 kPa, Gas, transient hot wire",0.01368 ± 0.0014 W/m/K
same,thermal conductivity,"322.01 K, 64 kPa, Gas, transient hot wire",0.01355 ± 0.00084 W/m/K
same,thermal conductivity,"322.24 K, 77 kPa, Gas, transient hot wire",0.01349 ± 0.00084 W/m/K
same,thermal conductivity,"322.3 K, 66 kPa, Gas, transient hot wire",0.01358 ± 0.001 W/m/K
same,thermal conductivity,"322.35 K, 64 kPa, Gas, transient hot wire",0.01367 ± 0.00085 W/m/K
same,thermal conductivity,"322.6 K, 77 kPa, Gas, transient hot wire",0.0137 ± 0.00085 W/m/K
same,thermal conductivity,"322.68 K, 66 kPa, Gas, transient hot wire",0.01369 ± 0.00099 W/m/K
same,thermal conductivity,"322.7 K, 62 kPa, Gas, transient hot wire",0.01363 ± 0.00085 W/m/K
same,thermal conductivity,"322.99 K, 77 kPa, Gas, transient hot wire",0.01375 ± 0.00086 W/m/K
same,thermal conductivity,"323.07 K, 66 kPa, Gas, transient hot wire",0.01363 ± 0.00085 W/m/K
same,thermal conductivity,"323.09 K, 62 kPa, Gas, transient hot wire",0.0139 ± 0.00087 W/m/K
same,thermal conductivity,"329.07 K, 105 kPa, Gas, hot wire",0.01379 ± 0.00065 W/m/K and 0.0138 ± 0.00065 W/m/K
same,thermal conductivity,"329.1 K, 72 kPa, Gas, hot wire",0.01387 ± 0.00066 W/m/K
same,thermal conductivity,"329.1 K, 73 kPa, Gas, hot wire",0.01371 ± 0.00065 W/m/K and 0.01367 ± 0.00065 W/m/K
same,thermal conductivity,"329.12 K, 72 kPa, Gas, hot wire",0.01364 ± 0.00065 W/m/K
same,thermal conductivity,"329.19 K, 27 kPa, Gas, hot wire",0.01341 ± 0.00063 W/m/K
same,thermal conductivity,"329.19 K, 120 kPa, Gas, hot wire",0.01389 ± 0.00065 W/m/K
same,thermal conductivity,"329.2 K, 26 kPa, Gas, hot wire",0.01335 ± 0.00063 W/m/K
same,thermal conductivity,"329.21 K, 120 kPa, Gas, hot wire",0.01385 ± 0.00065 W/m/K
same,thermal conductivity,"329.22 K, 27 kPa, Gas, hot wire",0.01411 ± 0.00067 W/m/K
same,thermal conductivity,"329.23 K, 26 kPa, Gas, hot wire",0.014 ± 0.00066 W/m/K
same,thermal conductivity,"329.23 K, 105 kPa, Gas, hot wire",0.01384 ± 0.00065 W/m/K and 0.01389 ± 0.00065 W/m/K
same,thermal conductivity,"329.25 K, 72 kPa, Gas, hot wire",0.01368 ± 0.00064 W/m/K
